For seven molecules, Km results are on record in article PMC12191596, “Gene Expression and Enzyme Kinetics of Polyphenol Oxidases in Strawberry and Their Possible Involvement in Enzymatic Browning Reactions in Strawberry Nectar” (Foods, 2025).

What is called Km is the substrate concentration at which the rate is half of its maximum.

SMILES strings stand for the structures.

In assay [1] the test system is T1, PPO1 (FaPPO 1).
T1 construct: latent PPO, transit peptide removed, C-terminal shielding domain kept, N-terminal 6xHis tag, pET28, E. coli BL21(DE3)
Put plainly: spectrophotometry, […] nm. It is filed as biochemical. As to conditions: 50 mM Tris-HCl pH 7, 0.7 mM SDS, 25 °C.

Assay [2] concerns T2, PPO2 (FaPPO 2).
T2 construct: latent PPO, transit peptide removed, C-terminal shielding domain kept, N-terminal 6xHis tag, non-codon-optimized cDNA, pET28, E. coli BL21(DE3)
Briefly: spectrophotometry, […] nm. As to conditions: 50 mM Tris-HCl pH 7, 0.7 mM SDS, 25 °C. It is filed as biochemical, Fragaria vesca.

The test system of assay [3] is PPO4 (FaPPO 4). Put plainly: spectrophotometry, […] nm. The assay is classed as biochemical, Fragaria vesca. As to conditions: 50 mM Tris-HCl pH 7, 1 mM SDS, 25 °C.
For assay [4], the system named is T1, PPO1 (FaPPO 1). Put plainly: spectrophotometry, […] nm. The assay is classed as biochemical. As to conditions: 50 mM Tris-HCl pH 7, 0.7 mM SDS, 25 °C. The source holds these as a separate data set.
For assay [5], the system named is T2, PPO2 (FaPPO 2). Briefly: spectrophotometry, […] nm. As to conditions: 50 mM Tris-HCl pH 7, 0.7 mM SDS, 25 °C. The assay is classed as biochemical, Fragaria vesca. The source holds these as a separate data set.
Assay [6] relates to PPO4 (FaPPO 4). Briefly: spectrophotometry, […] nm. It is filed as biochemical, Fragaria vesca. As to conditions: 50 mM Tris-HCl pH 7, 1 mM SDS, 25 °C. The source holds these as a separate data set.
Assay [7] relates to T1, PPO1 (FaPPO 1). Briefly: spectrophotometry, […] nm. It is filed as biochemical. The settings on record: 50 mM Tris-HCl pH 7, 0.7 mM SDS, 25 °C. This is another data set of the same source.
For assay [8], the system named is PPO4 (FaPPO 4). Put plainly: spectrophotometry, […] nm. It is filed as biochemical, Fragaria vesca. As to conditions: 50 mM Tris-HCl pH 7, 1 mM SDS, 25 °C. This is another data set of the same source.
For assay [9], the system named is T2, PPO2 (FaPPO 2). Briefly: spectrophotometry, […] nm. The assay is classed as biochemical, Fragaria vesca. As to conditions: 50 mM Tris-HCl pH 7, 0.7 mM SDS, 25 °C. This is another data set of the same source.
Assay [10] deals with PPO4 (FaPPO 4). Briefly: spectrophotometry, […] nm. The assay is classed as biochemical, Fragaria vesca. The settings on record: 50 mM Tris-HCl pH 7, 1 mM SDS, 25 °C. This is another data set of the same source.
Assay [11] relates to T2, PPO2 (FaPPO 2). Put plainly: spectrophotometry, […] nm. The assay is classed as biochemical, Fragaria vesca. The settings on record: 50 mM Tris-HCl pH 7, 0.7 mM SDS, 25 °C. This is another data set of the same source.
Assay [12] relates to T1, PPO1 (FaPPO 1). Put plainly: spectrophotometry, […] nm. The assay is classed as biochemical. The settings on record: 50 mM Tris-HCl pH 7, 0.7 mM SDS, 25 °C. This is another data set of the same source.
For assay [13], the system named is T2, PPO2 (FaPPO 2). Briefly: spectrophotometry, […] nm, Hill fit. The assay is classed as biochemical, Fragaria vesca. The settings on record: 50 mM Tris-HCl pH 7, 0.7 mM SDS, 25 °C, cooperative.
The subject of assay [14] is T1, PPO1 (FaPPO 1). Briefly: spectrophotometry, […] nm, Hill fit. The settings on record: 50 mM Tris-HCl pH 7, 0.7 mM SDS, 25 °C, cooperative. It is filed as biochemical.
Assay [15] has as its system PPO4 (FaPPO 4). Briefly: spectrophotometry, […] nm. The assay is classed as biochemical, Fragaria vesca. As to conditions: 50 mM Tris-HCl pH 7, 1 mM SDS, 25 °C. This is another data set of the same source.
In assay [16] the test system is T2, PPO2 (FaPPO 2). Briefly: spectrophotometry, […] nm. The assay is classed as biochemical, Fragaria vesca. The settings on record: 50 mM Tris-HCl pH 7, 0.7 mM SDS, 25 °C. The source holds these as a separate data set.
Assay [17] has as its system T1, PPO1 (FaPPO 1). Put plainly: spectrophotometry, […] nm. The assay is classed as biochemical. The settings on record: 50 mM Tris-HCl pH 7, 0.7 mM SDS, 25 °C. The source holds these as a separate data set.

Take `Oc1cc(O)c2c(c1)O[C@H](c1ccc(O)c(O)c1)[C@@H](O)C2` [Catechin]: the figures for the Km in assay [1], in [2] and in assay [3] were 120 ± 30 µM, 190 ± 40 µM and 870 ± 80 µM, respectively.

Take `Oc1ccccc1O` [Catechol]: the Km is 27000 ± 2000 µM in assay [4], 7500 ± 600 µM in assay [5] and 39000 ± 12000 µM in assay [6].

Regarding `O=C(/C=C/c1ccc(O)c(O)c1)O[C@@H]1C[C@](O)(C(=O)O)C[C@@H](O)[C@H]1O` [Chlorogenic acid], the Km in assay [4] was 2700 ± 400 µM; in assay [5] it was 1300 ± 200 µM; in assay [6] it was 1300 ± 200 µM.

In the case of `NCCc1ccc(O)c(O)c1` [Dopamine], the results for the Km in [7], in assay [8] and in assay [9] were 600 ± 100 µM, 990 ± 110 µM and 950 ± 120 µM, respectively.

`N[C@@H](Cc1ccc(O)c(O)c1)C(=O)O` [L-DOPA]: the values for the Km in assay [10], in assay [11] and in [12] were 3200 ± 1600 µM, 5700 ± 1900 µM and 2000 ± 400 µM, respectively.

Turning to `O=C(CCc1ccc(O)cc1)c1c(O)cc(O)cc1O` [Phloretin], the Km in assay [13] came out at 600 ± 400 µM; in assay [14], 82 ± 4 µM.

For the molecule `NCCc1ccc(O)cc1` [Tyramine], the Km stood at 1300 ± 100 µM in assay [15], 600 ± 100 µM in assay [16] and 500 ± 100 µM in assay [17].
